Tested on: participants with SSc-RP
Test: Scleroderma Health Assessment Questionnaire (SHAQ): disability indices and visual analog scales
Assay type: in vivo, human
Text: The standard, validated, patient reported outcome measures tool for SSc patients, the Scleroderma Health Assessment Questionnaire (SHAQ), will be used to assess the participant qualify of life. Details are attached in the Appendix. The participant quality of life will be scored, and a disability index calculated for each questionnaire completed by the patient at Screening and each in-clinic visit. The absolute change in participant quality of life from baseline to the end of each dosing period will be calculated similar to frequency data as before.
The SHAQ includes a Raynaud's VAS, which will be reported at screening and each in-clinic visit. The absolute change in Raynaud-VAS, assessed by the participants response to the SHAQ question ‘In the past 7 days, how much have your Raynaud's interfered with your daily activities?’ at baseline and the end of each dosing period will be calculated similar to frequency data as before.
The SHAQ is used to calculate a Disability Index to assess the participant qualify of life. The eight categories assessed by the Disability Index are 1) dressing and grooming, 2) arising, 3) eating, 4) walking, 5) hygiene, 6) reach, 7) grip, and 8) common daily activities. For each of these categories, patients report the amount of difficulty they have in performing two or three specific activities.
There are four possible responses for the Disability Index questions: • Without any difficulty=0 • With some difficulty=1 • With much difficulty=2 • Unable to do=3. • The highest score reported by the patient for any component question of the eight categories determines the score for that category. • If a component question is left blank or the response is too ambiguous to assign a score, then the score for that category is determined by the remaining completed question(s). • If all component questions are blank or if more than one answer is given, then follow up with the respondent is required. • If the respondent's mark is between the response columns, then move it to the closest one. If it's directly between the two, move it to the higher one.
Each of the disability items on the SHAQ has a companion aids/devices variable that is used to record what type(s) of assistance, if any, the participant uses for his/her usual activities. These variables (see below) are coded as follows: • 0=No assistance is needed. • 1=A special device is used by the patient in his/her usual activities. • 2=The patient usually needs help from another person. • 3=The patient usually needs BOTH a special device AND help from another person.
The scoring variables and scoring rules permit the computation of two disability indices, the Standard Disability Index and the Alternative Disability Index.
This question results in a new set of category scores that are computed by adjusting the score for each category, if necessary, based on the patient's use of an aid or device or assistance for that category. If either devices and/or help from another person are checked for a category, the score is set to “2”, unless the score is already “3” (i.e., scores of “0” or “1” are increased to “2”). For example, if the highest score for the dressing category is “1”, and the patient says they use a device for dressing, the computed category score would be “2”. The sum of the computed categories scores is then calculated and divided by the number of categories answered. This gives a score in the 0 to 3 range.
The aid and device variables are not used to calculate the alternative disability index; it is calculated by adding the scores for each of the categories and dividing by the number of categories answered. This gives a score in the 0 to 3 range.
The standard, validated, patient reported outcome measures tool for SSc patients, the SHAQ, was collected at the time points specified in the study schedules (FIG. 2 and FIGS. 4A and 4B) to assess the participant's quality of life. The SHAQ included a Raynaud's VAS that will also be reported separately.

[1] = Pooled Cilnidipine (10 mg or 20 mg) (N = 7), n 6
[2] = Pooled Cilnidipine (N = 6), Day 12, Modified ITT, SSc patients, Part A
[3] = Pooled Cilnidipine (N = 7), sensitivity analysis, Modified ITT, Part A

COCCOC(=O)C1=C(C)NC(C)=C(C(=O)OC/C=C/c2ccccc2)C1c1cccc([N+](=O)[O-])c1 (centres unmarked) [Cilnidipine, cilnidipine]
SHAQ patient reported disease severity, In-Clinic Visit (Day 12), Median (Pooled Cilnidipine (10 mg or 20 mg) (N = 7)): 1.200
SHAQ patient reported disease severity, Percent Change from Baseline, Mean [1]: −59.80%
SHAQ patient reported disease severity, Percent Change from Baseline, Median [1]: −55.86%
SHAQ Alternative Disability Index: Change from Baseline, Mean [2]: 0.000
SHAQ Alternative Disability Index: Change from Baseline, Median [2]: −0.063
SHAQ Alternative Disability Index: In-Clinic Visit (Day 12), Mean [2]: 0.438
SHAQ Alternative Disability Index: In-Clinic Visit (Day 12), Median [2]: 0.188
SHAQ Alternative Disability Index: Percent Change from Baseline, Mean [2]: −12.90%
SHAQ Alternative Disability Index: Percent Change from Baseline, Median [2]: −22.22%
SHAQ Standard Disability Index: Change from Baseline, Mean [2]: −0.063
SHAQ Standard Disability Index: Change from Baseline, Median [2]: 0.000
SHAQ Standard Disability Index: In-Clinic Visit (Day 12), Mean [2]: 0.500
SHAQ Standard Disability Index: In-Clinic Visit (Day 12), Median [2]: 0.188
SHAQ Standard Disability Index: Percent Change from Baseline, Mean [2]: −25.00%
SHAQ Standard Disability Index: Percent Change from Baseline, Median [2]: −16.67%
SHAQ Visual Analogue Scale - Breathing Problems: Change from Baseline, Mean [2]: −0.617
SHAQ Visual Analogue Scale - Breathing Problems: Change from Baseline, Median [2]: −0.400
SHAQ Visual Analogue Scale - Breathing Problems: In-Clinic Visit (Day 12), Mean [2]: 1.200
SHAQ Visual Analogue Scale - Breathing Problems: In-Clinic Visit (Day 12), Median [2]: 0.200
SHAQ Visual Analogue Scale - Breathing Problems: Percent Change from Baseline, Mean [2]: −8.17%
SHAQ Visual Analogue Scale - Breathing Problems: Percent Change from Baseline, Median [2]: −41.33%
SHAQ Visual Analogue Scale - Finger Ulcers: Change from Baseline, Mean [2]: −0.750
SHAQ Visual Analogue Scale - Finger Ulcers: Change from Baseline, Median [2]: −0.350
SHAQ Visual Analogue Scale - Finger Ulcers: In-Clinic Visit (Day 12), Mean [2]: 0.617
SHAQ Visual Analogue Scale - Finger Ulcers: In-Clinic Visit (Day 12), Median [2]: 0.350
SHAQ Visual Analogue Scale - Finger Ulcers: Percent Change from Baseline, Mean [2]: −17.08%
SHAQ Visual Analogue Scale - Finger Ulcers: Percent Change from Baseline, Median [2]: −50.82%
SHAQ Visual Analogue Scale - Intestinal Problems: Change from Baseline, Mean [2]: −1.083
SHAQ Visual Analogue Scale - Intestinal Problems: Change from Baseline, Median [2]: 0.000
SHAQ Visual Analogue Scale - Intestinal Problems: In-Clinic Visit (Day 12), Mean [2]: 1.300
SHAQ Visual Analogue Scale - Intestinal Problems: In-Clinic Visit (Day 12), Median [2]: 0.950
SHAQ Visual Analogue Scale - Intestinal Problems: Percent Change from Baseline, Mean [2]: −15.53%
SHAQ Visual Analogue Scale - Intestinal Problems: Percent Change from Baseline, Median [2]: −7.06%
SHAQ Visual Analogue Scale - Overall Disease Severity: Change from Baseline, Mean [2]: −1.350
SHAQ Visual Analogue Scale - Overall Disease Severity: Change from Baseline, Median [2]: −1.550
SHAQ Visual Analogue Scale - Overall Disease Severity: In-Clinic Visit (Day 12), Mean [2]: 1.733
SHAQ Visual Analogue Scale - Overall Disease Severity: In-Clinic Visit (Day 12), Median [2]: 1.300
SHAQ Visual Analogue Scale - Overall Disease Severity: Percent Change from Baseline, Mean [2]: −51.76%
SHAQ Visual Analogue Scale - Overall Disease Severity: Percent Change from Baseline, Median [2]: −51.72%
SHAQ Visual Analogue Scale - Pain: Change from Baseline, Mean [2]: −0.500
SHAQ Visual Analogue Scale - Pain: Change from Baseline, Median [2]: −0.250
SHAQ Visual Analogue Scale - Pain: In-Clinic Visit (Day 12), Mean [2]: 1.617
SHAQ Visual Analogue Scale - Pain: In-Clinic Visit (Day 12), Median [2]: 1.400
SHAQ Visual Analogue Scale - Pain: Percent Change from Baseline, Mean [2]: −29.23%
SHAQ Visual Analogue Scale - Pain: Percent Change from Baseline, Median [2]: −48.78%
SHAQ Visual Analogue Scale - Raynaud's: Change from Baseline, Mean [2]: −0.550
SHAQ Visual Analogue Scale - Raynaud's: Change from Baseline, Median [2]: −0.600
SHAQ Visual Analogue Scale - Raynaud's: In-Clinic Visit (Day 12), Mean [2]: 1.667
SHAQ Visual Analogue Scale - Raynaud's: In-Clinic Visit (Day 12), Median [2]: 1.250
SHAQ Visual Analogue Scale - Raynaud's: Percent Change from Baseline, Mean [2]: −18.64%
SHAQ Visual Analogue Scale - Raynaud's: Percent Change from Baseline, Median [2]: −38.67%
SHAQ Standard Disability Index: Baseline, Mean [3]: 0.482
SHAQ Standard Disability Index: Baseline, Median [3]: 0.375
SHAQ Standard Disability Index: Change from Baseline, Mean [3]: −0.054
SHAQ Standard Disability Index: Change from Baseline, Median [3]: 0.000
SHAQ Standard Disability Index: Day 12, Mean [3]: 0.429
SHAQ Standard Disability Index: Day 12, Median [3]: 0.125
SHAQ Standard Disability Index: Percent Change from Baseline, Mean [3]: −25.00%
SHAQ Standard Disability Index: Percent Change from Baseline, Median [3]: −16.67%
SHAQ VAS Breathing Problems: Baseline, Mean [3]: 1.557
SHAQ VAS Breathing Problems: Baseline, Median [3]: 0.200
SHAQ VAS Breathing Problems: Change from Baseline, Mean [3]: −0.529
